Patent US11970493B2, “Autotaxin inhibitor compounds” (ILDONG PHARMACEUTICAL CO., LTD., priority 2020, dated 2024)
Where a name gives a salt, the structure may show the parent alone.

Experiments:
[1] = Mouse PK study (IV and PO); assay type: in vivo; conditions: male, C57BL/6, mouse, plasma, male C57BL/6 mice; for AUC(0-inf): IV 2 mg/kg and PO 10 mg/kg study; for bioavailability / Cmax: po, 10 mg/kg; for bioavailability: IV 2 mg/kg and PO 10 mg/kg, read-out: F % (bioavailability); for Cmax: PO group 10 mg/kg
Experimental: This example describes the pharmacokinetic (PK) data obtained for various compounds of the present disclosure, from studies using mice. The following PK parameters were calculated: • Bioavailability (F %) were calculated using the linear/log trapezoidal rule • Peak plasma concentrations (Cmax (ng/mL)) were taken directly from the plasma concentration vs. time profiles for the PO group • Area under the curve e.g., the area under the concentration curve from time 0 to infinity (AUC0-inf(ng*h/mL)). Experimental Procedures
After intravenous (IV) and oral (PO) administration at 2 mg/kg and 10 mg/kg to male C57BL/6 mice, respectively, the blood samples were collected at the designed sampling time points. All blood samples were transferred into pre-chilled commercial polyethylene microcentrifuge tubes containing K2-EDTA as an anticoagulant. Samples were processed for plasma by centrifugation. Plasma samples was transferred into polypropylene tubes pre-chilled on dry ice and then quickly frozen over dry ice and kept at −70±10° C. until LC-MS/MS analysis. Mice plasma samples were analyzed using qualified bioanalytical methods based on protein precipitation followed by LC-MS/MS analysis. Individual plasma concentration data of each compound was subjected to noncompartmental pharmacokinetic analysis using Phoenix WinNonlin™. Nominal doses were used for pharmacokinetic parameters calculation.

hATX/ENPP2 = hATX/ENPP2 (Homo sapiens, UniProt Q13822); assay: hATX/ENPP2 biochemical assay using 16:0-LPC as substrate (Amplex Red/choline oxidase/HRP fluorescence); conditions: hENPP2 2.5 nM, LPC (16:0) substrate
Outline: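 Enzyme preincubated with compounds 15 min at room temperature in 50 mM Tris-HCl pH 8.0, 140 mM NaCl, 5 mM CaCl2, 0.01% Triton X-100. Reaction started with 80 μM LPC (16:0) stock plus Amplex Red/choline oxidase/HRP mix; fluorescence (ex 530/em 590 nm) read kinetically. IC50 from slope between 60 and 70 min.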

| Compound | AUC(0-inf) [1] [ng·h/mL] | bioavailability [1] [%] | Cmax [1] [ng/mL] | IC50 (hATX/ENPP2) [nM] |
| --- | --- | --- | --- | --- |
| CCc1nc2ccc(-c3cnc(C(=O)N4CCCC4)nc3)cn2c1N(C)c1nc(-c2ccc(F)cc2)c(C#N)s1 [Compound 47, 2-((2-ethyl-6-(2-(pyrrolidine-1-carbonyl)pyrimidin-5-yl)imidazo[1,2-a]pyridin-3-yl)(methyl)amino)-4-(4-fluorophenyl)thiazole-5-carbonitrile] | 42300 | 62.3 | 4760 | 20 to 200 |
| CCc1nc2ccc(-c3ccc(N4CCC(C(=O)N5CCC5)CC4)nc3)cn2c1N(C)c1nc(-c2ccc(F)cc2)c(C#N)s1 [Compound 122, 2-((6-(6-(4-(azetidine-1-carbonyl)piperidin-1-yl)pyridin-3-yl)-2-ethylimidazo[1,2-a]pyridin-3-yl)(methyl)amino)-4-(4-fluorophenyl)thiazole-5-carbonitrile] | 47700 | 57.8 | 7000 | ≤ 20 |
| CCc1nc2ccc(-c3ccc(N4CCN(C(=O)NC5CNC5)CC4)nc3)cn2c1N(C)c1nc(-c2ccc(F)cc2)c(C#N)s1 [Compound 96 hydrochloride, N-(azetidin-3-yl)-4-(5-(3-((5-cyano-4-(4-fluorophenyl)thiazol-2-yl)(methyl)amino)-2-ethylimidazo[1,2-a]pyridin-6-yl)pyridin-2-yl) piperazine-1-carboxamide hydrochloride] |  |  |  | 20 to 200 |
| CCc1nc2ccc(-c3cnc(CC(=O)N4CCC(O)CC4)nc3)cn2c1N(C)c1nc(-c2ccc(F)cc2)c(C#N)s1 [Compound 57, 2-((2-ethyl-6-(2-(2-(4-hydroxypiperidin-1-yl)-2-oxoethyl)pyrimidin-5-yl)imidazo[1,2-a]pyridin-3-yl)(methyl)amino)-4-(4-fluorophenyl) thiazole-5-carbonitrile] |  |  |  | 20 to 200 |
| CCc1nc2ccc(-c3cnc(N4CC(NC5CN(C)C5)C4)nc3)cn2c1N(C)c1nc(-c2ccc(F)cc2)c(C#N)s1 [80 (hydrochloride salt), 2-((2-ethyl-6-(2-(3-((I-methylazetidin-3-yl)amino)azetidin-1-yl)pyrimidin-5-yl)imidazo[1,2-a]pyridin-3-yl)(methyl)amino)-4-(4-fluorophenyl)thiazole-5-carbonitrile hydrochloride] |  |  |  | 20 to 200 |
| CCc1nc2ccc(-c3cnc(C(=O)N4CC(NC5CCC5)C4)nc3)cn2c1N(C)c1nc(-c2ccc(F)cc2)c(C#N)s1 [Compound 13, 2-((6-(2-(3-(cyclobutylamino)azetidine-1-carbonyl)pyrimidin-5-yl)-2-ethylimidazo[1,2-a]pyridin-3-yl)(methyl)amino)-4-(4-fluorophenyl)thiazole-5-carbonitrile] |  |  |  | > 200 |
| CCc1nc2ccc(-c3cnc(C4CCN(C(=O)C5CCC5)CC4)nc3)cn2c1N(C)c1nc(-c2ccc(F)cc2)c(C#N)s1 [Compound 100, 2-((6-(2-(1-(cyclobutanecarbonyl)piperidin-4-yl)pyrimidin-5-yl)-2-ethylimidazo[1,2-a]pyridin-3-yl)(methyl)amino)-4-(4-fluorophenyl)thiazole-5-carbonitrile] |  |  |  | 20 to 200 |
| CCc1nc2ccc(-c3cnc(N4CCC(C(=O)NC5CCNCC5)CC4)nc3)cn2c1N(C)c1nc(-c2ccc(F)cc2)c(C#N)s1 [Compound 73, 1-(5-(3-((5-cyano-4-(4-fluorophenyl)thiazol-2-yl)(methyl)amino)-2-ethylimidazo[1,2-a]pyridin-6-yl)pyrimidin-2-yl)-N-(piperidin-4-yl)piperidine-4-carboxamide] |  |  |  | ≤ 20 |
| CCc1nc2ccc(-c3cnc(N4CCN(CC(=O)N5CC[C@H](O)C5)CC4)nc3)cn2c1N(C)c1nc(-c2ccc(F)cc2)c(C#N)s1 [Compound 46, (S)-2-((2-ethyl-6-(2-(4-(2-(3-hydroxypyrrolidin-1-yl)-2-oxoethyl)piperazin-1-yl)pyrimidin-5-yl)imidazo[1,2-a]pyridin-3-yl)(methyl)amino)-4-(4-fluorophenyl)thiazole-5-carbonitrile] |  |  |  | ≤ 20 |

Further lines, results first:

| AUC(0-inf) [1] [ng·h/mL] | bioavailability [1] [%] | Cmax [1] [ng/mL] | IC50 (hATX/ENPP2) [nM] | Compound |
| --- | --- | --- | --- | --- |
| 27200 | 56.5 | 3030 | ≤ 20 | CCc1nc2ccc(-c3cnc(N4CCN(C(=O)C5(C#N)CC5)CC4)nc3)cn2c1N(C)c1nc(-c2ccc(F)cc2)c(C#N)s1 [Compound 1, 2-((6-(2-(4-(1-cyanocyclopropane-1-carbonyl)piperazin-1-yl)pyrimidin-5-yl)-2-ethylimidazo[1,2-a]pyridin-3-yl)(methyl)amino)-4-(4-fluorophenyl) thiazole-5-carbonitrile] |
| 35100 | 61 | 4070 | ≤ 20 | CCc1nc2ccc(-c3cnc(N4CCN(C(=O)C5(O)CC5)CC4)nc3)cn2c1N(C)c1nc(-c2ccc(F)cc2)c(C#N)s1 [Compound 2, 2-((2-ethyl-6-(2-(4-(1-hydroxycyclopropane-1-carbonyl)piperazin-1-yl)pyrimidin-5-yl)imidazo[1,2-a]pyridin-3-yl)(methyl)amino)-4-(4-fluorophenyl)thiazole-5-carbonitrile] |
|  |  |  | ≤ 20 | CCc1nc2ccc(-c3cnc(N4CCN(C(=O)NC5CNC5)CC4)nc3)cn2c1N(C)c1nc(-c2ccc(F)cc2)c(C#N)s1 [66 (hydrochloride salt), N-(azetidin-3-yl)-4-(5-(3-((5-cyano-4-(4-fluorophenyl)thiazol-2-yl)(methyl)amino)-2-ethylimidazo[1,2-a]pyridin-6-yl)pyrimidin-2-yl)piperazine-1-carboxamide hydrochloride] |
|  |  |  | ≤ 20 | CCc1nc2ccc(-c3cnc(N4CCN(C(=O)[C@@H]5C[C@H](O)CN5)CC4)nc3)cn2c1N(C)c1nc(-c2ccc(F)cc2)c(C#N)s1 [Compound 7, 2-((2-ethyl-6-(2-(4-((2S,4S)-4-hydroxypyrrolidine-2-carbonyl)piperazin-1-yl)pyrimidin-5-yl)imidazo[1,2-a]pyridin-3-yl)(methyl)amino)-4-(4-fluorophenyl) thiazole-5-carbonitrile] |
|  |  |  | ≤ 20 | CCc1nc2ccc(-c3ccc(N4CCN(C(=O)[C@@H]5C[C@@H](O)CN5)CC4)nc3)cn2c1N(C)c1nc(-c2ccc(F)cc2)c(C#N)s1 [Compound 95, 2-((2-ethyl-6-(6-(4-((2S,4R)-4-hydroxypyrrolidine-2-carbonyl)piperazin-1-yl)pyridin-3-yl)imidazo[1,2-a]pyridin-3-yl)(methyl)amino)-4-(4-fluorophenyl)thiazole-5-carbonitrile] |
|  |  |  | ≤ 20 | CCc1nc2ccc(-c3cnc(N4CCN(C(=O)[C@H]5C[C@@H](O)CN5)CC4)nc3)cn2c1N(C)c1nc(-c2ccc(F)cc2)c(C#N)s1 [Compound 6, 2-((2-ethyl-6-(2-(4-((2R,4R)-4-hydroxypyrrolidine-2-carbonyl)piperazin-1-yl)pyrimidin-5-yl)imidazo[1,2-a]pyridin-3-yl) (methyl)amino)-4-(4-fluorophenyl)thiazole-5-carbonitrile] |
